Test results taken from patent US11806367B2, “Methods of treating lysosomal disorders” (The Regents of the University of California, priority 2017, dated 2023).
Like-named read-outs stand apart in the source and are kept apart here.

What was measured:
Ctns^−/− mice = system: Ctns^−/− mice
Method: Ctns^−/− mice were exposed to myeloablative drugs currently used in clinic for HSC transplantation, Busulfan (Bu) and Cyclophosphamide (Cy) to test if drug-mediated myeloablation allow efficient engraftment of Ctns-expressing HSC in the preclinical model, decreased tissue cystine and to determine if any unexpected toxicity occurs because of cystinosis. Drugs were injected intraperitoneally (IP) in Ctns^−/− mice and WT mice as controls.

[1] = affected patients; cited from earlier work

CS(=O)(=O)OCCCCOS(C)(=O)=O [Bu, Busulfan]
donor cell engraftment measured in the peripheral blood (Ctns^−/− mice; 4 months post-transplant): 94.0±0.8%
toxicity in Ctns^−/− mice (Ctns^−/− mice; mouse, in vivo, ip): not toxic

NCCS [cysteamine, mercaptoethylamine]
effect on renal Fanconi syndrome [1]: has no effect

O=P1(N(CCCl)CCCl)NCCCO1 (stereo not shown) [Cy, Cyclophosphamide]
toxicity in Ctns^−/− mice (Ctns^−/− mice; IP injection, 4 months post-transplant, compared to WT controls): not toxic
